Data reported in PMC8138767, “Intrinsically disordered substrates dictate SPOP subnuclear localization and ubiquitination activity” (The Journal of Biological Chemistry, 2021).
Where no end group is shown, it is not given here.

Legend:
[1] = tested on: SPOP-dependent turnover in T-REx-293 cells; test: SPOP-dependent Pdx1 stability (Western blot); type: cell-based; settings: no MG132, harvested 28 h after transfection, Western blot (Fig. S3D)
Description: In a similar experiment, the cells were not treated with a proteasome inhibitor to observe the SPOP-dependent stability of each Pdx1 variant.
(§1) T-REx-293 cells (Invitrogen) were seeded at a density of 0.8 × 10^6 per well in 6-well plates (tissue culture–treated plates (cat. no 3516, Corning)). After 24 h, cells were transfected with plasmids encoding Pdx1–GFP, SPOP–myc, His–ubiquitin, HA–Rbx1, and myc–CUL3 (as indicated) using the Qiagen Effectene transfection reagent. 24 h after transfection, the cells were treated with either dimethyl sulfoxide or 20 μM MG132 for 4 h before being harvested. Cells were lysed in buffer A (6 M guanidine HCl, 100 mM sodium phosphate, pH 8.0, and 10 mM imidazole). The lysates were sonicated, cleared, and incubated with Ni-NTA Agarose (Qiagen) for 3 h at RT, followed by 16 h at 4 °C. The beads were washed twice with buffer A and twice with a buffer composed of 1:3 buffer A:buffer T1 (buffer T1: 25 mM Tris HCl, pH 8.0, and 20 mM imidazole). The beads were finally transferred to buffer T1 and then boiled in the SDS-PAGE loading buffer containing 300 mM imidazole. Pdx1 stability assays were performed as described above, except that the cells were not treated with MG132. Cells expressing Pdx1–GFP or a variant were harvested 28 h after transfection, resuspended in 2x SDS-loading dye, and boiled for 5 min before SDS-PAGE analysis.
(§2) All proteins were resolved by SDS-PAGE. Separated proteins were analyzed by immunoblotting using either the ECL or the ECL Select Western blotting detection reagents (Amersham). The antibodies used were mouse anti-Pdx1 used at 1:500 for pulldown or 1:2000 for inputs (clone 26771, MAB2419, R&D Systems), mouse anti-myc (1:250, clone 9E10, Santa Cruz Biotechnology), and rabbit anti-GAPDH (1:8000, clone EPR1689, Abcam). horseradish peroxidase-conjugated secondary antibodies were sourced from Jackson ImmunoResearch Laboratories and used at 1:20,000 dilution (goat anti-rabbit IgG, 111-035-003 and goat anti-mouse, 115-035-003).

[2] = tested on: SPOP-mediated ubiquitination in T-REx-293 cells; test: SPOP-mediated ubiquitination of Pdx1 variants (Ni-NTA pulldown, immunoblot); type: cell-based; settings: SPOP–myc and GFP–Pdx1 coexpressed 24 h, then 20 μM MG132 or DMSO for 4 h, immunoblot (Fig. 6C)
Description: We next sought to determine whether SPOP-driven ubiquitination of Pdx1 could occur outside of previously implicated droplets. Given the SPOP relocalization phenotype that we observe in cells that express SPOP and Pdx1, we hypothesized that the ubiquitination activity was occurring in the diffuse nucleoplasm and that optimal activity requires both SB sites. To test this hypothesis, we performed in cell ubiquitination assays with GFP–Pdx1 variants. SPOP–myc and GFP–Pdx1 were coexpressed for 24 h in T-REx-293 cells, followed by a 4-h treatment with 20 μM MG132 or dimethyl sulfoxide. Proteins modified with His-ubiquitin were enriched by pulldown on nickel-nitrilotriacetic acid (Ni-NTA) resin.
(§3) A plasmid encoding full-length human Pdx1 (amino acids 1-283) in pcDNA3.1 with a C-terminal GFP tag was purchased from GenScript. Full-length mouse SPOP (identical to the human sequence) with a V5 epitope tag in pcDNA3 was generated previously ([21]). The coding sequence for full-length mouse SPOP was inserted into pcDNA4/TO/myc (Invitrogen) for the T-REx system. pcDNA3-myc-CUL3 (cat no. 19893) and pcDNA–HA2–ROC1 (Rbx1) (cat no. 19897) were obtained from Addgene. pcDNA3 containing His-ubiquitin was a gift from Wenyi Wei.
Ubiquitination and Western blots
as §1, §2

V5-SPOP in HeLa cells = test: Immunofluorescence: V5-SPOP localization on coexpression of GFP–Pdx1 variants; type: cell-based; settings: coexpressed with V5-SPOP, 24 h after transfection, three biological replicates
Description: (§4) HeLa cells were cultured under sterile conditions with Dulbecco’s modified Eagle’s medium (DMEM) (Gibco) supplemented with 10% fetal bovine serum and antibiotics/antimycotics (Gibco) (see Table S5 for key reagents and resources). T-REx-293 cells (cat. no. R710-07) were obtained from Invitrogen. Cells were grown on DMEM supplemented with 10% fetal bovine serum (Gibco), GlutaMax (Gibco), and Penicillin-Streptomycin (Gibco) and kept under selection by 5 μg/ml blasticidin. All cells were grown at 37 °C under 5% CO2 and were mycoplasma free at the time the experiments were performed.
as §3
For immunofluorescence experiments, 0.5 × 10^6 cells were seeded on borosilicate glass coverslips in 6-well plates. After 24 h, cells were transfected with 400 ng of each plasmid using the Qiagen Effectene transfection reagent according to the manufacturer protocol. 24 h after transfection, the cells were treated with 4% paraformaldehyde in PBS for 30 min at RT. Cells were permeabilized with 0.1% Triton X-100 in PBS (PBST) for 5 min at 21 °C, followed by blocking in 0.5% BSA in PBST for 1 h at 21 °C. Signal from GFP-tagged proteins was observed directly. Cells were stained in primary antibodies diluted in 0.5% BSA in PBST overnight at 4 °C with mouse anti-SC-35 (1:300, ab11826; Abcam) and chicken anti-V5 (1:300, NB600-379; Novus Biologicals). Cells were incubated with secondary antibodies for 2 h at 21 °C. The secondary antibodies used were goat anti-mouse Alexa Fluor 647 (1:250, A-21235; Thermo Fisher) and goat anti-chicken Alexa Fluor 555 (1:250, A-21437; Thermo Fisher). Cells on coverslips were treated with 300 nM 4′,6-diamidino-2-phenylindole (DAPI) for 5 min at 21 °C. Coverslips were mounted on glass slides with ProLong Diamond mounting reagent (Thermo Fisher) and cured before imaging on a Zeiss LSM 880 Upright microscope. All images were analyzed and prepared in Fiji ([53]).
All immunofluorescence data were averaged over three biological replicates. Cells not expressing both Pdx1 and SPOP were excluded from sampling. Raw images were collected in the Zeiss Zen software and then exported for viewing and analysis in Fiji. Nuclei of individual cells were designated manually in Fiji using the DAPI channel as a guide. The cells were binned based on whether SPOP was localized to nuclear speckles (puncta); cells with both diffuse and punctate SPOP signal were binned as “speckled.” The grayscale signal intensity of the green channel (Pdx1–GFP) was averaged over the DAPI-designated nuclear area. Next, the raw GFP intensity data points (one data point per cell analyzed) were plotted to generate a violin plot distribution. The average, minimum, and maximum values are shown by horizontal lines on the plot. Individual data points are also shown for rigor. […] All plotting and statistical tests were performed using in-house python scripts that can be found at https://github.com/idpemery/spop-pdx1.

[3] = biological target: T1, SPOP–MATH (residues 28–166) (Homo sapiens, UniProt O43791); test: Competition fluorescence anisotropy, displacement of f-Puc from SPOP–MATH; type: binding; settings: competition FA; 40 nM f-Puc, 6 μM SPOP–MATH; 50 mM sodium phosphate pH 6.5, 50 mM NaCl, 5 mM DTT, 1% BSA, 0.01% Triton X-100; complete competitive binding model; ± standard deviation of three independent replicates (Table S4)
T1 construct: glutathione S-transferase (GST) (N, cleaved yes); 6X His (N, cleaved yes); made in house; host or cells: E. coli BL-21(DE3)
Description: An Escherichia coli codon-optimized DNA sequence encoding amino acids 205 to 283 of the human Pdx1 sequence (Pdx1-C) in the multiple cloning site of pET49b(+) was purchased from GeneArt (Thermo Fisher). The pET49b(+) backbone encodes for N-terminal glutathione S-transferase and 6X His tags, followed by a 3C protease recognition motif. In all experiments described herein, a mutant containing an exogenous tryptophan at the N terminus of the human Pdx1-C sequence was used for the purposes of quantitation. Mutations in Pdx1-C were generated by Q5 site-directed mutagenesis (New England Biolabs) with primers designed on NEBbasechanger.com according to the manufacturer protocol. Similarly, an E. coli–optimized DNA sequence encoding residues 28 to 166 of human SPOP (SPOP–MATH) was purchased in pET49b(+) from GeneArt. […] A plasmid encoding His–SUMO–SPOP human residues 28 to 359 harboring a tobacco etch virus protease recognition site directly N terminal to the beginning of the native SPOP protein sequence was generated previously ([21]).
All FA experiments were conducted in 50 mM sodium phosphate, pH 6.5, 50 mM sodium chloride, 5 mM DTT, 1% BSA, and 0.01% Triton X-100. In all experiments, the source of fluorescence signal was f-Puc purchased from GenScript, at a final concentration of 40 nM. For direct FA measurements, SPOP–MATH or SPOP28–359 of concentrations between 0.001 and 300 μM was added to wells of 96- or 384-well plates containing f-Puc and buffer. For competition-mode experiments, serial dilutions of each competitor (Pdx1 peptide or recombinant protein) were prepared ranging from ∼0.01 μM to ∼2 mM (concentration range varied based on peptide solubility) in wells of 96- or 384-well plates containing 40 nM f-Puc and 6 μM SPOP–MATH or SPOP28–359. The fluorescence polarization of each well was measured (from which FA was calculated) using either a TECAN Infinite M1000 Pro or BioTek Synergy 4 fluorometer. All experiments were performed with at least three technical replicates. FA data points were fit to a complete competitive binding model ([23]) to determine dissociation constants using in-house Python scripts (see Quantification and statistical analysis).
All titrations were performed in triplicate for rigor. Direct FA titrations were performed to determine the dissociation constants of the fluorescent probe toward SPOP constructs. Direct titration data were fit according to equation 6 in ([54]). Competition mode titration data were fit according to the fitting function in ([23]). Average dissociation constants and standard error from the mean for all constructs from competition experiments may be found in Table S4. The python scripts used in plotting and fitting may be found at https://github.com/idpemery/spop-pdx1.

[4] = biological target: T2, SPOP-MATH (human SPOP residues 28-166) (human, UniProt O43791 28-166); test: fluorescence polarisation; competition fluorescence anisotropy: competitor (~0.01 μM to ~2 mM) displaces 40 nM f-Puc from 6 μM SPOP-MATH or SPOP28-359; complete competitive binding fit; 50 mM sodium phosphate pH 6.5, 50 mM NaCl, 5 mM DTT, 1% BSA, 0.01% Triton X-100; settings: both partners purified
T2 construct: N-terminal Gly-Pro-Gly cloning artefact left after 3C protease; speckle-type POZ protein (SPOP), human, MATH domain, residues 28-166; uniformly 15N-labelled for the NMR experiments; also called 15N-SPOP-MATH; source: E. coli BL-21(DE3), purified (Ni-NTA, 3C protease, second Ni-NTA, Sephacryl S100); not shown: GST, N-terminal, cleaved; His6, N-terminal, cleaved
T2 sequence (O43791 other isoform, or with tags, fused parts or gaps): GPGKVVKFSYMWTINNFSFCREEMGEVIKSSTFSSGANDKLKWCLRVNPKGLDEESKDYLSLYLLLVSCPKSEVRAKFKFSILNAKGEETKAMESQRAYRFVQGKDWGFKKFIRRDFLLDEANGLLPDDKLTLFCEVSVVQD

HeLa cells = test: Immunofluorescence: subcellular localization / phase separation of the protein itself; type: cell-based; settings: SC-35 nuclear speckle marker
Description: as §4, §3
For immunofluorescence experiments, 0.5 × 10^6 cells were seeded on borosilicate glass coverslips in 6-well plates. After 24 h, cells were transfected with 400 ng of each plasmid using the Qiagen Effectene transfection reagent according to the manufacturer protocol. 24 h after transfection, the cells were treated with 4% paraformaldehyde in PBS for 30 min at RT. Cells were permeabilized with 0.1% Triton X-100 in PBS (PBST) for 5 min at 21 °C, followed by blocking in 0.5% BSA in PBST for 1 h at 21 °C. Signal from GFP-tagged proteins was observed directly. […] All images were analyzed and prepared in Fiji ([53]).
All immunofluorescence data were averaged over three biological replicates. […] Next, the raw GFP intensity data points (one data point per cell analyzed) were plotted to generate a violin plot distribution. […]

Molecule: GFP–Pdx1–ΔSBM1: GFP–Pdx1 with deletion of the higher-affinity SBM1 (residues 224–236)
- SPOP-dependent Pdx1 stability [1]: more stable relative to the WT protein
- ubiquitination of Pdx1 variant [2]: impedes ubiquitination, as shown by no shift from the unmodified band
- ubiquitination of Pdx1 variant ([2]; listed as Pdx1 lacking SBM1): not observably ubiquitinated
- SPOP relocalization from nuclear speckles by Pdx1 variant (V5-SPOP in HeLa cells): all cells, regardless of GFP–Pdx1–ΔSBM1 levels, contain punctate V5-SPOP

Molecule: Ac-GSSSEADEMAKALEAELNDLM [Mock (Fcp1), mock peptide, residues 941-961, negative control, reference compound]
- KD (binding to SPOP-MATH) [3]: no binding

Molecule: Ac-LSASPQPSSVAPRRPQEPR [Pdx1–SBM2]
- Kd [3]: > 600 µM

B1: Pdx1-SBM2 peptide (human Pdx1 residues 265-283) (peptide)
peptide: Ac-LSASPQPSSVAPRRPQEPR
notes: pancreatic and duodenal homeobox 1 (Pdx1), human, residues 265-283; also called Pdx1 265-283; source: synthetic peptide (Tufts University Core Facility, HPLC purified)
- Kd [4]: 630 µM

B2: V5-SPOP: full-length mouse SPOP (identical to the human sequence) with a V5 epitope tag (protein, UniProt Q6ZWS8 1-374, looked up)
chain: MSRVPSPPPPAEMSSGPVAESWCYTQIKVVKFSYMWTINNFSFCREEMGEVIKSSTFSSGANDKLKWCLRVNPKGLDEESKDYLSLYLLLVSCPKSEVRAKFKFSILNAKGEETKAMESQRAYRFVQGKDWGFKKFIRRDFLLDEANGLLPDDKLTLFCEVSVVQDSVNISGQNTMNMVKVPECRLADELGGLWENSRFTDCCLCVAGQEFQAHKAILAARSPVFSAMFEHEMEESKKNRVEINDVEPEVFKEMMCFIYTGKAPNLDKMADDLLAAADKYALERLKVMCEDALCSNLSVENAAEILILADLHSADQLKTQAVDFINYHASDVLETSGWKSMVVSHPHLVAEAYRSLASAQCPFLGPPRKRLKQS
modifications: full-length V5 tag
- V5-SPOP localization when expressed alone (HeLa cells): localizes to nuclear speckles

B3: W131G: substrate binding-impaired SPOP mutant (protein, UniProt O43791 1-374, looked up, variant W131G)
Speckle-type POZ protein: MSRVPSPPPPAEMSSGPVAESWCYTQIKVVKFSYMWTINNFSFCREEMGEVIKSSTFSSGANDKLKWCLRVNPKGLDEESKDYLSLYLLLVSCPKSEVRAKFKFSILNAKGEETKAMESQRAYRFVQGKDGGFKKFIRRDFLLDEANGLLPDDKLTLFCEVSVVQDSVNISGQNTMNMVKVPECRLADELGGLWENSRFTDCCLCVAGQEFQAHKAILAARSPVFSAMFEHEMEESKKNRVEINDVEPEVFKEMMCFIYTGKAPNLDKMADDLLAAADKYALERLKVMCEDALCSNLSVENAAEILILADLHSADQLKTQAVDFINYHASDVLETSGWKSMVVSHPHLVAEAYRSLASAQCPFLGPPRKRLKQS
modifications: V5 tag
- ubiquitination of Pdx1 variant [2]: lack of any shift of the Pdx1 band
